# Results taken from patent US9302999B2, “Substituted triazoles as herbicides” (E. I. DU PONT DE NEMOURS AND COMPANY, priority 2012, dated 2016).
# Key:
# Type in all cases: in vivo
# [1] = tested on: velvetleaf (Abutilon theophrasti); test: Test A pre-/postemergence: velvetleaf
# Summary of the method: (§1)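 Plants in loam–sand blend were treated with test chemicals in non-phytotoxic solvent with surfactant, either as preemergence directed soil spray or postemergence at 2–10 cm, one- to two-leaf stage. After about ten days in greenhouse, injury was rated visually against untreated controls on a 0–100 scale (100 = complete control).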
# [2] = tested on: wheat (Triticum aestivum); test: Test A pre-/postemergence: wheat
# Summary of the method: as §1
# [3] = tested on: morningglory (Ipomoea spp.); test: Test A pre-/postemergence: morningglory
# Summary of the method: as §1
# [4] = tested on: rice (Oryza sativa); test: Test B flooded paddy: rice; settings: Flood; 250 g ai/ha; applied to paddy water at 2-leaf stage; visually evaluated after 13 to 15 days
# Summary of the method: (§2)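 Visual ratings (0 = no effect, 100 = complete control) versus untreated controls were taken 13–15 days after treatment of greenhouse plants. Treatment was added to paddy water held at 3 cm depth on 2-leaf-stage seedlings.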
# [5] = tested on: pigweed (Amaranthus retroflexus); test: Test A pre-/postemergence: pigweed
# Summary of the method: as §1
# [6] = tested on: barnyardgrass (Echinochloa crus-galli); test: Test B flooded paddy: barnyardgrass; settings: Flood; 250 g ai/ha; applied to paddy water at 2-leaf stage; visually evaluated after 13 to 15 days
# Summary of the method: as §2
# [7] = tested on: foxtail, giant (giant foxtail, Setaria faberii); test: Test A pre-/postemergence: foxtail, giant; settings: for Foxtail, Giant plant response rating: Postemergence; for Plant response rating, Foxtail, Giant: Preemergence
# Summary of the method: as §1
# [8] = tested on: corn (Zea mays); test: Test A pre-/postemergence: corn; settings: for Corn plant response rating: Postemergence; for Plant response rating, Corn: Preemergence
# Summary of the method: as §1
# [9] = tested on: crabgrass, large (large crabgrass, Digitaria sanguinalis); test: Test A pre-/postemergence: crabgrass, large; settings: for Crabgrass, Large plant response rating: Postemergence; for Plant response rating, Crabgrass, Large: Preemergence
# Summary of the method: as §1
# [10] = tested on: barnyardgrass (Echinochloa crus-galli); test: Test A pre-/postemergence: barnyardgrass; settings: for Barnyardgrass plant response rating: Postemergence; for Plant response rating, Barnyardgrass: Preemergence
# Summary of the method: as §1
# [11] = tested on: ducksalad (Heteranthera limosa); test: Test B flooded paddy: ducksalad; settings: Flood; 250 g ai/ha; applied to paddy water at 2-leaf stage; visually evaluated after 13 to 15 days
# Summary of the method: as §2
# [12] = tested on: sedge, umbrella (small-flower umbrella sedge Cyperus difformis); test: Test B flooded paddy: sedge, umbrella; settings: Flood; 250 g ai/ha; applied to paddy water at 2-leaf stage; visually evaluated after 13 to 15 days
# Summary of the method: as §2
# [13] = Postemergence, 125 g ai/ha, 0 to 100 scale, 0 is no effect, 100 is complete control
# [14] = Postemergence, 500 g ai/ha, visual rating on 0 to 100 scale (0 no effect, 100 complete control), approximately ten days
# [15] = Preemergence, 125 g ai/ha, 0 to 100 scale (0 no effect, 100 complete control)
# [16] = Preemergence, 500 g ai/ha, 0 to 100 scale, 0 is no effect, 100 is complete control
# [17] = 125 g ai/ha, 0 to 100 scale, 0 is no effect, 100 is complete control
# [18] = 500 g ai/ha, visual rating on 0 to 100 scale (0 no effect, 100 complete control), approximately ten days
# [19] = 125 g ai/ha, 0 to 100 scale (0 no effect, 100 complete control)
# [20] = 500 g ai/ha, 0 to 100 scale, 0 is no effect, 100 is complete control
# [21] = Preemergence, 125 g ai/ha, 0 to 100 scale where 0 is no effect and 100 is complete control
# [22] = Preemergence, 500 g ai/ha, 0 to 100 scale (0 no effect, 100 complete control)
# [23] = 125 g ai/ha, 0 to 100 scale where 0 is no effect and 100 is complete control
# [24] = 500 g ai/ha, 0 to 100 scale (0 no effect, 100 complete control)
smiles,measurement,setting,value
CSc1nn(-c2ccc(F)cc2)nc1Cc1ccnc(C(F)(F)F)c1 [Compound 27],Velvetleaf plant response rating,[1]; [13],40
same,Velvetleaf plant response rating,[1]; [14],50
same,"Plant response rating, Velvetleaf",[1]; [15],0
same,"Plant response rating, Velvetleaf",[1]; [16],0
same,Wheat plant response rating,[2]; [13],20
same,Wheat plant response rating,[2]; [14],40
same,"Plant response rating, Wheat",[2]; [15],0
same,"Plant response rating, Wheat",[2]; [16],0
same,Morningglory plant response rating,[3]; [13],40
same,Morningglory plant response rating,[3]; [14],90
same,"Plant response rating, Morningglory",[3]; [15],0
same,"Plant response rating, Morningglory",[3]; [16],0
same,"Plant response rating, Rice (0 to 100 scale, 0 is no effect, 100 is complete control)",[4],10
same,Pigweed plant response rating,[5]; [13],90
same,Pigweed plant response rating,[5]; [14],100
same,"Plant response rating, Pigweed",[5]; [15],0
same,"Plant response rating, Pigweed",[5]; [16],80
same,"Plant response rating, Barnyardgrass (0 to 100 scale, 0 is no effect, 100 is complete control)",[6],20
same,"Foxtail, Giant plant response rating",[7]; [17],30
same,"Foxtail, Giant plant response rating",[7]; [18],40
same,"Plant response rating, Foxtail, Giant",[7]; [19],10
same,"Plant response rating, Foxtail, Giant",[7]; [20],80
same,Corn plant response rating,[8]; [17],20
same,Corn plant response rating,[8]; [18],20
same,"Plant response rating, Corn",[8]; [19],0
same,"Plant response rating, Corn",[8]; [20],0
same,"Crabgrass, Large plant response rating",[9]; [17],30
same,"Crabgrass, Large plant response rating",[9]; [18],40
same,"Plant response rating, Crabgrass, Large",[9]; [19],20
same,"Plant response rating, Crabgrass, Large",[9]; [20],40
same,Barnyardgrass plant response rating,[10]; [17],0
same,Barnyardgrass plant response rating,[10]; [18],20
same,"Plant response rating, Barnyardgrass",[10]; [19],0
same,"Plant response rating, Barnyardgrass",[10]; [20],10
same,"Plant response rating, Ducksalad (0 to 100 scale, 0 is no effect, 100 is complete control)",[11],50
same,"Plant response rating, Sedge, Umbrella (0 to 100 scale, 0 is no effect, 100 is complete control)",[12],20
CON=C(c1cccc(C(F)(F)F)c1)c1nn(-c2ccnc(C(F)(F)F)c2)nc1C [Compound 140],"Plant response rating, Velvetleaf",[1]; [13],20
same,Velvetleaf plant response rating,[1]; [14],70
same,"Plant response rating, Velvetleaf",[1]; [21],20
same,"Plant response rating, Velvetleaf",[1]; [22],30
same,"Plant response rating, Wheat",[2]; [13],10
same,Wheat plant response rating,[2]; [14],20
same,"Plant response rating, Wheat",[2]; [21],0
same,"Plant response rating, Wheat",[2]; [22],0
same,"Plant response rating, Morningglory",[3]; [13],50
same,Morningglory plant response rating,[3]; [14],90
same,"Plant response rating, Morningglory",[3]; [21],0
same,"Plant response rating, Morningglory",[3]; [22],0
same,"Plant response rating, Rice (0 to 100 scale, 0 is no effect, 100 is complete control)",[4],0
same,"Plant response rating, Pigweed",[5]; [13],100
same,Pigweed plant response rating,[5]; [14],100
same,"Plant response rating, Pigweed",[5]; [21],30
same,"Plant response rating, Pigweed",[5]; [22],80
same,"Plant response rating, Barnyardgrass (0 to 100 scale, 0 is no effect, 100 is complete control)",[6],30
same,"Foxtail, Giant plant response rating",[7]; [17],20
same,"Foxtail, Giant plant response rating",[7]; [18],50
same,"Plant response rating, Foxtail, Giant",[7]; [23],20
same,"Plant response rating, Foxtail, Giant",[7]; [24],70
same,Corn plant response rating,[8]; [17],20
same,Corn plant response rating,[8]; [18],30
same,"Plant response rating, Corn",[8]; [23],0
same,"Plant response rating, Corn",[8]; [24],0
same,"Crabgrass, Large plant response rating",[9]; [17],20
same,"Crabgrass, Large plant response rating",[9]; [18],50
same,"Plant response rating, Crabgrass, Large",[9]; [23],20
same,"Plant response rating, Crabgrass, Large",[9]; [24],50
same,Barnyardgrass plant response rating,[10]; [17],10
same,Barnyardgrass plant response rating,[10]; [18],30
same,"Plant response rating, Barnyardgrass",[10]; [23],0
same,"Plant response rating, Barnyardgrass",[10]; [24],30
same,"Plant response rating, Ducksalad (0 to 100 scale, 0 is no effect, 100 is complete control)",[11],0
same,"Plant response rating, Sedge, Umbrella (0 to 100 scale, 0 is no effect, 100 is complete control)",[12],0
